Source: US7247641B2, “Compounds, derivatives, compositions, preparation and uses” (MGI GP, Inc., priority 2001, dated 2007)
Where two headings read alike, the source gives them in different places.

Key:
[1] = target: T1, purified recombinant human PARP (Homo sapiens, UniProt P09874); test: PARP enzyme assay, [3H]NAD incorporation, IC50; assay type: biochemical
T1 construct: purchased Trevigan (Gaithersburg, Md.)
Experimental: The reaction is initiated by incubating the mixture at 25° C. After 15 minutes of incubation, the reaction is terminated by adding 500 microliters of ice cold 20% (w/v) trichloroacetic acid. The precipitate formed is transferred onto a glass fiber filter (Packard Unifilter-GF/B) and washed three times with ethanol. After the filter is dried, the radioactivity is determined by scintillation counting.

[2] = approximate values, PARP enzyme assay, read-out: IC50

T1 sequence (P09874 whole entry): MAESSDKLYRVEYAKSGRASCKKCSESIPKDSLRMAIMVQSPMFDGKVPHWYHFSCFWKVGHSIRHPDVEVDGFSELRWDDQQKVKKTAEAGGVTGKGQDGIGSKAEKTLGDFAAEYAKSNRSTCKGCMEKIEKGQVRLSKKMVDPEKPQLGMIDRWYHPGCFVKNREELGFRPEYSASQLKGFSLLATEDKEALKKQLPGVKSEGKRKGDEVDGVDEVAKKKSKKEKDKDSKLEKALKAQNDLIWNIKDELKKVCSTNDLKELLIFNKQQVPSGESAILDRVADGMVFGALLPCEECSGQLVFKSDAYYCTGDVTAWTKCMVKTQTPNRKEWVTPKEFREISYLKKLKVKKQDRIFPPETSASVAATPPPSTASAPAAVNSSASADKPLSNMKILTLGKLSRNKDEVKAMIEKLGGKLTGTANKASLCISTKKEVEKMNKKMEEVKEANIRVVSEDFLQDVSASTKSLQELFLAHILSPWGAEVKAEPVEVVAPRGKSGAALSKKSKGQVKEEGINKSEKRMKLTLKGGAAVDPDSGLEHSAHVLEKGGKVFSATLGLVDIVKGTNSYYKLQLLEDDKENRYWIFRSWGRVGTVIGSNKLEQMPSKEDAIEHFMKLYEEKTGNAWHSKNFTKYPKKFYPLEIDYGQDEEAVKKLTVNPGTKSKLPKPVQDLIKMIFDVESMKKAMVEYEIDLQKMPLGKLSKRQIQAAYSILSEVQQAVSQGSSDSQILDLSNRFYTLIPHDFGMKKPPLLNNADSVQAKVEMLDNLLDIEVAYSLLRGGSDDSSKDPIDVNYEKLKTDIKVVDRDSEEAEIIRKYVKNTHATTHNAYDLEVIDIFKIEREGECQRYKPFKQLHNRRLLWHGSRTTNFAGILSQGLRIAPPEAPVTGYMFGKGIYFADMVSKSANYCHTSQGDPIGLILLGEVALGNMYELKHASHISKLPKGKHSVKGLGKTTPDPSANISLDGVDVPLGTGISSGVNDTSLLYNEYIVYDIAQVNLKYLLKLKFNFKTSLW

Row | SMILES | IC50 [1, 2] [nM] | other results
1 | O=C(CCNCCc1ccccc1F)N1CCc2[nH]c(=O)c3ccccc3c2C1 [Compound 17m] | 164 | –
2 | NC(Cc1ccc(O)cc1)C(=O)N1CCc2[nH]c(=O)c3ccccc3c2C1 (centres unmarked) [Compound 21j] | 382 | –
3 | O=C(CNC[C@H](O)CO)N1CCc2[nH]c(=O)c3ccccc3c2C1 [Compound 16i] | 668 | –
4 | CN(C)CCN(C)CCCC(=O)N1CCc2[nH]c(=O)c3ccccc3c2C1 [Compound 18e] | 492 | –
5 | O=C(c1cccc(S(=O)(=O)N2CCc3[nH]c(=O)c4ccccc4c3C2)c1)N1CCC(N2CCCC2)CC1 [Compound 23b] | 304 | –
6 | O=C(CCNC[C@H](O)CO)N1CCc2[nH]c(=O)c3ccccc3c2C1 [Compound 17h] | 250 | –
7 | O=C1CCN(CC(=O)N2CCc3[nH]c(=O)c4ccccc4c3C2)CC1 [Compound 16l] | 296 | –
8 | CN(CCC(=O)N1CCc2[nH]c(=O)c3ccccc3c2C1)CC(=O)OC(C)(C)C [Compound 17d] | 180 | –
9 | CC(O)CNCC(=O)N1CCc2[nH]c(=O)c3ccccc3c2C1 (centres unmarked) [Compound 16c] | 421 | –
10 | O=C(CCN1CCCCC1)N1CCc2nc(O)c3ccccc3c2C1 [Compound 17i] | 71 | –
11 | CN(C)CCCN(C)CCC(=O)N1CCc2[nH]c(=O)c3ccccc3c2C1 [Compound 17a] | 282 | –
12 | O=C(CN1CCc2ccccc2C1)N1CCc2[nH]c(=O)c3ccccc3c2C1 [Compound 16h] | 1580 | –
13 | O=C1NCN2c3ccc([N+](=O)[O-])cc3Sc3cccc1c32 [Example 5, 9-Nitro-1,2-dihydro-7-thia-2,11b-diaza-benzo[de]anthracen-3-one] | – | melting point: 205 to 208 °C
14 | O=C(CN1CC=CCC1)N1CCc2[nH]c(=O)c3ccccc3c2C1 [Compound 16m] | 214 | –
15 | CN(C)CCCC(=O)N1CCc2[nH]c(=O)c3ccccc3c2C1 [Compound 18h] | 152 | –
16 | O=C(CCN1CCCCC1CO)N1CCc2[nH]c(=O)c3ccccc3c2C1 (centres unmarked) [Compound 17f] | 435 | –
17 | NC(Cc1ccccc1)C(=O)N1CCc2[nH]c(=O)c3ccccc3c2C1 (centres unmarked) [Compound 21i] | 1230 | –
18 | O=C1NC(c2ccccc2)n2c3ccccc3c(=O)c3cccc1c32 (centres unmarked) [Example 9] | – | melting point: 288 to 292 °C
19 | O=C(CCCNCC1(O)CCCCC1)N1CCc2[nH]c(=O)c3ccccc3c2C1 [Compound 18s] | 156 | –
20 | C=CS(=O)(=O)N1CCc2[nH]c(=O)c3ccccc3c2C1 [Compound 22c] | 292 | –
21 | O=C1NCN2c3ccc(S(=O)(=O)NCCN4CCOCC4)cc3Sc3cccc1c32 [Example 3, 3-Oxo-2,3-dihydro-1H-7-thia-2,11b-diaza-benzo[de]anthracene-9-(N2-morpholin-4-yl-ethyl)sulfonamide] | – | melting point: 227 to 228 °C
22 | CN(C)CCN(C)CC(=O)N1CCc2[nH]c(=O)c3ccccc3c2C1 [Compound 16d] | 985 | –
23 | CN(CCCC(=O)N1CCc2[nH]c(=O)c3ccccc3c2C1)CC(=O)OC(C)(C)C [Compound 18d] | 495 | –

Row | SMILES | IC50 [1, 2] [nM] | other results
24 | O=c1[nH]c2c(c3ccccc13)CN(S(=O)(=O)CCN1CCC(N3CCCC3)CC1)CC2 [Compound 24a] | – | IC50 [1]: 80 nM
25 | O=C1CCN(CCC(=O)N2CCc3[nH]c(=O)c4ccccc4c3C2)CC1 [Compound 17k] | 111 | –
26 | CC(C)C(N)C(=O)N1CCc2[nH]c(=O)c3ccccc3c2C1 (centres unmarked) [Compound 21c] | 698 | –
27 | O=C(CCN1CCc2ccccc2C1)N1CCc2[nH]c(=O)c3ccccc3c2C1 [Compound 17g] | 244 | –
28 | CCOC(=O)C1CCN(CC(=O)N2CCc3[nH]c(=O)c4ccccc4c3C2)CC1 [Compound 16k] | 134 | –
29 | CN1CCN(CC(=O)N2CCc3[nH]c(=O)c4ccccc4c3C2)CC1 [Compound 16b] | 1670 | –
30 | O=C(CCCN1CCN(CCO)CC1)N1CCc2[nH]c(=O)c3ccccc3c2C1 [Compound 18g] | 479 | –
31 | CN(C)CCN(C)CCC(=O)N1CCc2[nH]c(=O)c3ccccc3c2C1 [Compound 17e] | 385 | –
32 | O=C(C1CCCN1)N1CCc2[nH]c(=O)c3ccccc3c2C1 (centres unmarked) [Compound 21d] | 268 | –
33 | NCC(=O)N1CCc2[nH]c(=O)c3ccccc3c2C1 [Compound 21a] | 90 | –
34 | O=C(CCCNCC(O)c1ccccc1)N1CCc2[nH]c(=O)c3ccccc3c2C1 (centres unmarked) [Compound 18r] | 357 | –
35 | O=C(CCCN1CCCCC1)N1CCc2[nH]c(=O)c3ccccc3c2C1 [Compound 18j] | 457 | –
36 | C[C@H](CO)NCCCC(=O)N1CCc2[nH]c(=O)c3ccccc3c2C1 [Compound 18q] | 251 | –
37 | N[C@H](Cc1ccc(O)cc1)C(=O)N1CCc2[nH]c(=O)c3ccccc3c2C1 [Compound 21k] | 3710 | –
38 | CN1CCN(CCCC(=O)N2CCc3[nH]c(=O)c4ccccc4c3C2)CC1 [Compound 18b] | 241 | –
39 | CC(O)CNCCC(=O)N1CCc2[nH]c(=O)c3ccccc3c2C1 (centres unmarked) [Compound 17c] | 2180 | –
40 | O=c1[nH]c2c(c3ccccc13)CN(Cc1ccccc1)CC2 [Compound 6a] | 335 | –
41 | O=C1CCN(CCCC(=O)N2CCc3[nH]c(=O)c4ccccc4c3C2)CC1 [Compound 18l] | 251 | –
42 | O=C1NCN2c3ccccc3Sc3cccc1c32 [Example 1, 1,2-Dihydro-7-thia-2,11b-diaza-benzo[de]anthracen-3-one] | – | melting point: 187 to 192 °C
43 | O=c1[nH]c2c(c3ccccc13)CCN(Cc1ccccc1)C2 [Compound 11] | 220 | –
44 | CCOC(=O)C1CCN(CCC(=O)N2CCc3[nH]c(=O)c4ccccc4c3C2)CC1 [Compound 17j] | 558 | –
45 | CN(C)CC(=O)N1CCc2[nH]c(=O)c3ccccc3c2C1 [Compound 16g] | 644 | –
46 | CC(=O)N1CCc2[nH]c(=O)c3ccccc3c2C1 [Compound 21n] | 58 | –

Row | SMILES | IC50 [1, 2] [nM] | other results
47 | O=C(CCCN1CC=CCC1)N1CCc2[nH]c(=O)c3ccccc3c2C1 [Compound 18m] | 410 | –
48 | NCCC(=O)N1CCc2[nH]c(=O)c3ccccc3c2C1 [Compound 21l] | 62 | –
49 | O=C(CCCNC[C@H]1CCCO1)N1CCc2[nH]c(=O)c3ccccc3c2C1 [Compound 18p] | 167 | –
50 | O=c1[nH]c2c(c3ccc(F)cc13)CN(Cc1ccccc1)CC2 [Compound 6b] | 182 | –
51 | CN(C)CCCN(C)CC(=O)N1CCc2[nH]c(=O)c3ccccc3c2C1 [Compound 16a] | 426 | –
52 | CC(O)CNCCCC(=O)N1CCc2[nH]c(=O)c3ccccc3c2C1 (centres unmarked) [Compound 18c] | 87 | –
53 | O=C(CCCN1CCCCC1CO)N1CCc2[nH]c(=O)c3ccccc3c2C1 (centres unmarked) [Compound 18f] | 672 | –
54 | O=C(CCCNCCc1ccccc1F)N1CCc2[nH]c(=O)c3ccccc3c2C1 [Compound 18n] | 1320 | –
55 | O=C(CN1CCCCC1CO)N1CCc2[nH]c(=O)c3ccccc3c2C1 (centres unmarked) [Compound 16e] | 844 | –
56 | O=C(CCCNC[C@@H]1CCCO1)N1CCc2[nH]c(=O)c3ccccc3c2C1 [Compound 18o] | 322 | –
57 | O=C(CCCl)N1CCc2[nH]c(=O)c3ccccc3c2C1 [Compound 14a] | 185 | –
58 | O=C(CN1CCN(CCO)CC1)N1CCc2[nH]c(=O)c3ccccc3c2C1 [Compound 16f] | 13100 | –
59 | O=C(NCCN1CCCCC1)N1CCc2[nH]c(=O)c3ccccc3c2C1 [Compound 21o] | 105 | –
60 | CCOC(=O)C1CCN(CCCC(=O)N2CCc3[nH]c(=O)c4ccccc4c3C2)CC1 [Compound 18k] | 482 | –
61 | O=C(O)c1cccc(S(=O)(=O)N2CCc3[nH]c(=O)c4ccccc4c3C2)c1 [Compound 22a] | 36 | –
62 | CN1CCN(C(=O)c2cccc(S(=O)(=O)N3CCc4[nH]c(=O)c5ccccc5c4C3)c2)CC1 [Compound 23a] | 441 | –
63 | O=C1NCN2c3ccc(S(=O)(=O)NCCN4CCCCC4)cc3Sc3cccc1c32 [Example 4, 3-Oxo-2,3-dihydro-1H-7-thia-2,11b-diaza-benzo[de]anthracene-9-(N-2-piperidin-1-yl-ethyl)-sulfonamide] | – | melting point: 170 to 172 °C
64 | CN1CCN(CCC(=O)N2CCc3[nH]c(=O)c4ccccc4c3C2)CC1 [Compound 17b] | 1800 | –
65 | CN(C)CCCN(C)CCCC(=O)N1CCc2[nH]c(=O)c3ccccc3c2C1 [Compound 18a] | 185 | –
66 | O=C1NCn2c3ccccc3c(=O)c3cccc1c32 [Example 8, 1,2-Dihydro-2,11b-diaza-benzo[de]anthracene-3,7-dione] | – | melting point: 250 to 255 °C
67 | O=C(c1cccc(CCl)c1)N1CCc2c([nH]c(=O)c3ccccc23)C1 [Compound 21p] | 799 | –
68 | O=C1NCN2c3ccccc3Oc3cccc1c32 [Example 6, 1,2-Dihydro-7-oxa-2,11b-diaza-benzo[de]anthracen-3-one] | – | melting point: > 300 °C
